How the values were obtained:
[1] = molecular target: human TLR7 (Homo sapiens (Human), UniProt Q9NYK1); assay: HEK293-Blue-hTLR-7 cells assay; assay type: cell-based; conditions: HEK293-Blue-hTLR7 cells, R848 stimulation, 20 hrs, SEAP reporter; read-out: HEK/hTLR7 IC50
Source text: (§1) A stable HEK293-Blue-hTLR-7 cell line was purchased from InvivoGen (Cat. #: hkb-htlr7, San Diego, Calif., USA). These cells were originally designed for studying the stimulation of human TLR7 by monitoring the activation of NF-κB. A SEAP (secreted embryonic alkaline phosphatase) reporter gene was placed under the control of the IFN-β minimal promoter fused to five NF-κB and AP-1-binding sites. The SEAP was induced by activating NF-κB and AP-1 via stimulating HEK-Blue hTLR7 cells with TLR7 ligands. Therefore the reporter expression was declined by TLR7 antagonist under the stimulation of a ligand, such as R848 (Resiquimod), for incubation of 20 hrs. The cell culture supernatant SEAP reporter activity was determined using QUANTI-Blue™ kit (Cat. #: rep-qb1, Invivogen, San Diego, Ca, USA) at a wavelength of 640 nm, a detection medium that turns purple or blue in the presence of alkaline phosphatase.
HEK293-Blue-hTLR7 cells were incubated at a density of 250,000˜450,000 cells/mL in a volume of 170 μL in a 96-well plate in Dulbecco's Modified Eagle's medium (DMEM) containing 4.5 g/L glucose, 50 U/mL penicillin, […], […], 2 mM L-glutamine, 10% (v/v) heat-inactivated fetal bovine serum with addition of 20 μL test compound in a serial dilution in the presence of final DMSO at 1% and 10 μL of 20 uM R848 in above DMEM, perform incubation under 37° C. in a CO2 incubator for 20 hrs. Then 20 μL of the supernatant from each well was incubated with 180 μL Quanti-blue substrate solution at 37° C. for 2 hrs and the absorbance was read at 620-655 nm using a spectrophotometer. The signaling pathway that TLR7 activation leads to downstream NF-κB activation has been widely accepted, and therefore similar reporter assay was modified for evaluating TLR7 antagonist.

[2] = molecular target: T1, TLR9 (Homo sapiens (Human), UniProt Q9NR96); assay: HEK293-Blue-hTLR-9 cells assay; assay type: cell-based; conditions: HEK293-Blue-hTLR9 cells, ODN2006 stimulation, 20 hrs, SEAP reporter; read-out: HEK/hTLR9 IC50
T1 sequence (Q9NR96 26-1032): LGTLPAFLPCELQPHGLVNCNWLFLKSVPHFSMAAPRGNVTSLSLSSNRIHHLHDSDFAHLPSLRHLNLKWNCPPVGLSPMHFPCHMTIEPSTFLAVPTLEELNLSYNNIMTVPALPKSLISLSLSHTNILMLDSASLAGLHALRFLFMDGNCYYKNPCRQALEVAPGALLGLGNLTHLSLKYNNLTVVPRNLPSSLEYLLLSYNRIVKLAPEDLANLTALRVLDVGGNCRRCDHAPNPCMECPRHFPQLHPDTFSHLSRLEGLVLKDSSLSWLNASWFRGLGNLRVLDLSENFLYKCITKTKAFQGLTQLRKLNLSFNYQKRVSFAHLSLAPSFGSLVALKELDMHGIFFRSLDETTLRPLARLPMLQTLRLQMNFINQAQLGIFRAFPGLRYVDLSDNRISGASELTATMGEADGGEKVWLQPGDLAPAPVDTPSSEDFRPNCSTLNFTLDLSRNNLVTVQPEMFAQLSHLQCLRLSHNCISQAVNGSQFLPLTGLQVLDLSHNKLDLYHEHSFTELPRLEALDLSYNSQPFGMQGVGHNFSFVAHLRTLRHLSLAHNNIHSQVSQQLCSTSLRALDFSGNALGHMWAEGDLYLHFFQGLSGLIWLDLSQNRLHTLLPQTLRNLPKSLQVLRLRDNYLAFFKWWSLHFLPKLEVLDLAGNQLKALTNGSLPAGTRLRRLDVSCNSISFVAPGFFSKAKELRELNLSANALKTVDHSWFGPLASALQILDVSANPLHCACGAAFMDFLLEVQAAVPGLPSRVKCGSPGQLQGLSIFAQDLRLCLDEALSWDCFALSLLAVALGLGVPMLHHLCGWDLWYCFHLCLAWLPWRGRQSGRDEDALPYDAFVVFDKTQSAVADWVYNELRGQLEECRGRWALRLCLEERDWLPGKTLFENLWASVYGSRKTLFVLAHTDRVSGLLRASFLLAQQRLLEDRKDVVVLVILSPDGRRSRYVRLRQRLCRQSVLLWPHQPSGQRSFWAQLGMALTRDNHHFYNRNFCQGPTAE
Source text: as §1, with “HEK293-Blue-hTLR-9” for “HEK293-Blue-hTLR-7”, “hkb-htlr9,” for “hkb-htlr7,”, “TLR9” for “TLR7”, “hTLR9” for “hTLR7”, “ODN2006 (Cat. #: tlr1-2006-1, Invivogen, San Diego, Calif., USA),” for “R848 (Resiquimod),”, “Calif.,” for “Ca,”
HEK293-Blue-hTLR9 cells were incubated at a density of 250,000˜450,000 cells/mL in a volume of 170 μL in a 96-well plate in Dulbecco's Modified Eagle's medium (DMEM) containing 4.5 g/L glucose, 50 U/mL penicillin, […], 2 mM L-glutamine, 10% (v/v) heat-inactivated fetal bovine serum with addition of 20 μL test compound in a serial dilution in the presence of final DMSO at 1% and 10 μL, of 20 uM ODN2006 in above DMEM, perform incubation under 37° C. in a CO2 incubator for 20 hrs. Then 20 μL of the supernatant from each well was incubated with 180 μL, Quanti-blue substrate solution at 37° C. for 2 h and the absorbance was read at 620655 nm using a spectrophotometer. The signaling pathway that TLR9 activation leads to downstream NF-κB activation has been widely accepted, and therefore similar reporter assay was modified for evaluating TLR9 antagonist.

[3] = molecular target: T1, TLR9; assay: Human PBMC cell-based assay, TLR9; conditions: CpG ODN 2216 at 1 μM, overnight, cytokine readout, read-out: hPBMC/TLR9 IC50
Source text: Unlike the HEK reporter cell lines, human peripheral blood mononuclear cell (PBMC) represents primary human immune cells in blood mainly consisting of lymphocytes, monocytes, and dendritic cells. These cells express TLR7, TLR8, or TLR9, and therefore are natural responders to respective ligand stimulation. Upon activation of these TLRs, PBMCs secrete similar cytokines and chemokines in vitro and in vivo, and therefore the in vitro potency of a TLR7/8/9 antagonist in human PBMC is readily translatable to its pharmacodynamics response in vivo.
Human peripheral blood mononuclear cells (PBMC) were isolated from freshly-drawn lithium-heparinized (Lithium Heparin Plus blood Collection tube, BD Vacutainer®) healthy donor whole blood by density gradient (Ficoll-Paque™ PLUS, GE Healthcare life Sciences). Briefly, […] was diluted with 25 mL PBS (without Ca^2+, Mg^2+) in a 50 mL conical tube with porous barrier (Leucosep tube, Greiner bio-one), where 15.5 mL Ficoll-Paque was under laid after spinning. Tubes were centrifuged for 20 minutes at 800×g (1946 rpm) with the brake in the off position, and PBMC were collected from the buffy coat. Cells were then washed twice in PBS, and red blood cells were lysed by suspension in 2 mL (Red Blood Cell Lysis Buffer, Alfa Aesar) for 5-10 minutes at room temperature. After a final wash in PBS, PBMC were resuspended at a final concentration of 2×10^6 cells/mL in RPMI-1640 media with GlutaMAX™ (Gibco) supplemented with 10% Fetal Bovine Serum (Sigma) and plated at 150 μL/well (3×10^5 cells/well) in tissue culture treated round bottom 96-well plates (Corning Incorporated). Antagonist compounds (compounds of this invention) solubilized and serial diluted in 100% DMSO were added in duplicate to cells to yield a final concentration of 1% DMSO (v/v). PBMC were incubated with antagonist compounds for 30 minutes at 37° C., 5% CO2 before adding various TLR agonist reagents in 48 μL complete media per well as follows (final concentrations indicated): CpG ODN 2216 (InvivoGen) at 1 μM for TLR9, ORN 06/LyoVec (InvivoGen) at 1 μg/mL for TLR8 and R848 (InvivoGen) at 1 μg/mL for TLR7 and TLR8. PBMC were incubated overnight at 37° C. with 5% CO2. Cell culture supernatants were collected, and levels of various human cytokines were assessed by Luminex assay (ProcartaPlex™ Multiplex Immunoassay, Invitrogen) or ELISA procedure according to the manufacturer's recommended protocol (eBioscience, ThermoFisher Scientific). Viability of the cells was also checked with Cell Viability Assay (CellTiter Glo®Luminescent Cell Viability Assay, Promega).

Sequence of human TLR7 (Q9NYK1 27-1049): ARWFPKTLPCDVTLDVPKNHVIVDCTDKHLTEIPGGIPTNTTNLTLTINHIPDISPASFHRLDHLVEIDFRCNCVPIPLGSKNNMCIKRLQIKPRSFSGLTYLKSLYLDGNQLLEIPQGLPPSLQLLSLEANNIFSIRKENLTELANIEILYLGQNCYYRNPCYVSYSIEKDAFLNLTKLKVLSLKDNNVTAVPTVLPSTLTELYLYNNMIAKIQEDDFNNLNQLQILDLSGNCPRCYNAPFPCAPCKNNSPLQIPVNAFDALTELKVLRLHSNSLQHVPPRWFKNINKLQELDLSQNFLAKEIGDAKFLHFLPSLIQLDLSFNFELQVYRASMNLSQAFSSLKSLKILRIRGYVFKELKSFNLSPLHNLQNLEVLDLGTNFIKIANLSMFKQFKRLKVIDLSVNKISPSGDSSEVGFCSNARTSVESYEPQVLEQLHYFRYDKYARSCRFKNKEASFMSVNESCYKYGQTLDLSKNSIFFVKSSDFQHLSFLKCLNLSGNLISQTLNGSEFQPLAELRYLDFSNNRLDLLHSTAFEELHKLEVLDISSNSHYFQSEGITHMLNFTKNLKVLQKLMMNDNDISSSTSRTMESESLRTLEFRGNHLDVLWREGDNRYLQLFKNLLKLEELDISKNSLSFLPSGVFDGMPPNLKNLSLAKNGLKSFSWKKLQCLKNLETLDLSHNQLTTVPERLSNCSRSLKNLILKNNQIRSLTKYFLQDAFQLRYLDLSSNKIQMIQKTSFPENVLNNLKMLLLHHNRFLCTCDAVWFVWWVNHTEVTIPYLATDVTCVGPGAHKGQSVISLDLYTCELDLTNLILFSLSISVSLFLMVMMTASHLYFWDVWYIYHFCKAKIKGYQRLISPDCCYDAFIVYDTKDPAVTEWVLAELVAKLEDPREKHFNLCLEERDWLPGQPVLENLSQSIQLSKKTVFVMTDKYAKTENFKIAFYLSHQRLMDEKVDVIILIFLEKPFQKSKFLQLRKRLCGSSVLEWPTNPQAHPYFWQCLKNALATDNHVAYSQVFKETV

SMILES | IC50 [1] [nM] | IC50 [2] [nM] | IC50 [3] [nM]
Cc1cn2cc(-c3ccc(N4CCC(N)CC4)nc3C(C)C)cc(C)c2n1 [Example 4, 1-[5-(2,8-dimethylimidazo[1,2-a]pyridin-6-yl)-6-isopropyl-2-pyridyl]piperidin-4-amine] | 8.9 | 154 | –
Cc1cn2cc(-c3ccc(N4CCNC[C@H]4CO)nc3C(C)C)cc(C)c2n1 [Example 5, [(2S)-1-[5-(2,8-dimethylimidazo[1,2-a]pyridin-6-yl)-6-isopropyl-2-pyridyl]piperazin-2-yl]methanol] | 21.4 | 227 | –
Cc1c(-c2ccc(N3CCC(N4CCNCC4)CC3)nc2C(C)C)cn2ccnc2c1C [Example 7, 6-[2-isopropyl-6-(4-piperazin-1-yl-1-piperidyl)-3-pyridyl]-7,8-dimethyl-imidazo[1,2-a]pyridine] | 22.7 | 112 | –
Cc1cc(-c2cc(C)c3nccn3c2)cnc1N1CCC(N2CCN(C)CC2)CC1 [Example 9, 8-methyl-6-[5-methyl-6-[4-(4-methylpiperazin-1-yl)-1-piperidyl]-3-pyridyl]imidazo[1,2-a]pyridine] | 13.2 | 169 | 500
Cc1cn2cc(-c3ccc(N4CCC(N5CCNCC5)CC4)nc3C(F)F)cc(C)c2n1 [Example 11, 6-[2-(difluoromethyl)-6-(4-piperazin-1-yl-1-piperidyl)-3-pyridyl]-2,8-dimethyl-imidazo[1,2-a]pyridine] | 16.3 | 111 | –
Cc1cn2cc(-c3ccc(N4CCC(N5CC(C)(N)C5)CC4)nc3C(F)F)cc(C)c2n1 [Example 12, 1-[1-[6-(difluoromethyl)-5-(2,8-dimethylimidazo[1,2-a]pyridin-6-yl)-2-pyridyl]-4-piperidyl]-3-methyl-azetidin-3-amine] | 16.3 | 145 | 290
CCc1nc(N2CCC(N3C[C@@H](N)[C@H](OC)C3)CC2)ccc1-c1cc(C)c2nc(C)cn2c1 [Example 17, (3R,4R)-1-[1-[5-(2,8-dimethylimidazo[1,2-a]pyridin-6-yl)-6-ethyl-2-pyridyl]-4-piperidyl]-4-methoxy-pyrrolidin-3-amine] | 17.3 | 224 | 100
CCc1nc(N2CCC(C)(N)CC2)ccc1-c1cc(C)c2nc(C)cn2c1 [Example 20, 1-[5-(2,8-dimethylimidazo[1,2-a]pyridin-6-yl)-6-ethyl-2-pyridyl]-4-methyl-piperidin-4-amine] | 35.8 | 108 | 500

Now those with a lower IC50 [1], led by results:

IC50 [1] [nM] | IC50 [2] [nM] | IC50 [3] [nM] | SMILES
6.9 | 92 | 130 | COc1nc(N2CCC(N3CCNCC3)CC2)ccc1-c1cc(C)c2nccn2c1 [Example 25, 6-[2-methoxy-6-(4-piperazin-1-yl-1-piperidyl)-3-pyridyl]-8-methyl-imidazo[1,2-a]pyridine]
6.7 | 294 | – | Cc1cn2cc(-c3ccc(N4CCN5CCNCC5C4)nc3C(C)C)cc(C)c2n1 (centres unmarked) [Example 8, 2-[5-(2,8-dimethylimidazo[1,2-a]pyridin-6-yl)-6-isopropyl-2-pyridyl]-1,3,4,6,7,8,9,9a-octahydropyrazino[1,2-a]pyrazine]
5.9 | 140 | – | CCc1nc(N2CCC(N3CCNCC3)CC2)ccc1-c1cc(C)c2nc(C)cn2c1 [Example 21, 6-[2-ethyl-6-(4-piperazin-1-yl-1-piperidyl)-3-pyridyl]-2,8-dimethyl-imidazo[1,2-a]pyridine]
5.8 | 198 | – | Cc1cn2cc(-c3ccc(N4CCC(N5CCNCC5)CC4)nc3C(C)C)cc(C)c2n1 [Example 3, 6-[2-isopropyl-6-(4-piperazin-1-yl-1-piperidyl)-3-pyridyl]-2,8-dimethyl-imidazo[1,2-a]pyridine]
3.9 | 216 | 250 | CCc1nc(N2CCC(N3CC4(CNCCO4)C3)CC2)ccc1-c1cc(C)c2nccn2c1 [Example 14, 2-[1-[6-ethyl-5-(8-methylimidazo[1,2-a]pyridin-6-yl)-2-pyridyl]-4-piperidyl]-5-oxa-2,8-diazaspiro[3.5]nonane]
3.3 | 132 | – | CCc1cc(-c2cc(C)c3nccn3c2)cnc1N1CCC2(CCNCC2)CC1 [Example 22, 3-[3-ethyl-5-(8-methylimidazo[1,2-a]pyridin-6-yl)-2-pyridyl]-3,9-diazaspiro[5.5]undecane]
2.7 | 286 | 470 | CCc1nc(N2CCC(N3C[C@@H](N)[C@H](OC)C3)CC2)ccc1-c1cc(C)c2nccn2c1 [Example 15, (3R,4R)-1-[1-[6-ethyl-5-(8-methylimidazo[1,2-a]pyridin-6-yl)-2-pyridyl]-4-piperidyl]-4-methoxy-pyrrolidin-3-amine]
1.9 | 217 | – | Cc1cc(-c2ccc(N3CCC(N4CCNCC4)CC3)nc2C(F)F)cn2ccnc12 [Example 10, 6-[2-(difluoromethyl)-6-(4-piperazin-1-yl-1-piperidyl)-3-pyridyl]-8-methyl-imidazo[1,2-a]pyridine]
1.6 | 151 | – | Cc1cc(-c2ccc(N3CCC(N4CCNCC4)CC3)nc2C(C)C)cn2ccnc12 [Example 2, 6-[2-isopropyl-6-(4-piperazin-1-yl-1-piperidyl)-3-pyridyl]-8-methyl-imidazo[1,2-a]pyridine]

Reference: US20230279001A1, “IMIDAZO[1,2-A]PYRIDINE COMPOUNDS FOR THE TREATMENT OF AUTOIMMUNE DISEASE” (Hoffmann-La Roche Inc., priority 2020, published 2023)
